Reference: patent EP0132540A1 (priority 1981, dated 1983)
Converted amounts (≈) assume the structure as drawn.

Legend:
Rhino = experiment: microbe, parasite or virus in culture; format: cell-based
Coxsackie Type B5 = experiment: microbe, parasite or virus in culture; format: cell-based; conditions: Virus G = Coxsackie Type B5
Influenza A1 = experiment: microbe, parasite or virus in culture; format: cell-based
Influenza A0 = experiment: microbe, parasite or virus in culture; format: cell-based; conditions: Virus A = Influenza A0, MDCK, Vero and HEL cells
ECHO = experiment: microbe, parasite or virus in culture; format: cell-based
Acute toxicity in mice = experiment: Acute toxicity in mice; parameters: species or system ddy male mice; conditions: mouse, in vivo, suspended in 5% Arabic gum solution, mortality observed for 7 days
Protocol: Experimental Example 7: Acute Toxicity in Mice
Each compound of the invention was suspended in 5% Arabic gum solution and given orally (p.o.) or intraperitoneally (i.p.) to groups of ten ddy male mice weighed from 24 to 26 g at the dosage volume of 10 ml/kg. […] LD50 was determined according to the method of Wilcoxon and Litchfield.

Parainfluenza Type 3 = experiment: microbe, parasite or virus in culture; format: cell-based; conditions: Virus E = Parainfluenza Type 3
influenza A0 virus = experiment: Protective action against the death of mice infected with influenza A0 virus; format: in vivo, ICR female mice; conditions: for Survival rate: twice a day for 14 days, survivors at 15th day
Text: Experimental Example 2 Protective Action against the Death of Mice. Infected with Influenza A0 Virus,
After the influenza A0 virus was inoculated to groups each -consisting of ten ICR female mice (16 - 18 g) intranasally under light anesthesia with ether, compound of the invention was given orally or intraperitoneally as multiple doses of twice a day starting one hour after infection and continued for 14 days. The result of the treatment was shown as the increase in percentage of survivors at 15th day.

[1] = Physicochemical properties (qualitative solubility); conditions: qualitative solubility in solvents
Influenza B = experiment: microbe, parasite or virus in culture; format: cell-based
influenza virus B/GL = format: in vivo, ICR female mice; conditions: result in words, oral
[2] = ip, Intra-peritoneal administration

SMILES | MIC (Rhino) [µg/mL] | MIC (Coxsackie Type B5) [µg/mL] | MIC (Influenza A1) [µg/mL] | MIC (Influenza A0) [µg/mL] | MIC (ECHO) [µg/mL] | LD50 at 168 h (Acute toxicity in mice; [2]) [mg/kg] | LD50 at 168 h (Acute toxicity in mice; Oral administration) [mg/kg] | MIC (Parainfluenza Type 3) [µg/mL] | Survival rate (influenza A0 virus; intraperitoneal, 100 mg/kg) [%] | Survival rate (influenza A0 virus; oral, 300 mg/kg) [%] | Property (solubility) [1] | MIC (Influenza B) [µg/mL] | Survival rate (influenza A0 virus; intraperitoneal, 10 mg/kg) [%] | Survival rate (influenza A0 virus; intraperitoneal, 30 mg/kg) [%] | Survival rate (influenza A0 virus; oral, 30 mg/kg) [%] | Survival rate (influenza A0 virus; oral, 100 mg/kg) [%] | protective action against death due to the infection (influenza A0 virus; result in words, oral or intraperitoneal) | survival rates of the treated groups as compared with that of the control (influenza virus B/GL)
CNS(=O)(=O)c1cc(C(=O)O)ccc1Cl [Compound 1, 4-chloro-3-methylamino-sulfonylbenzoic acid] | 300 (≈ 1200 µM) | 100 (≈ 401 µM) | 300 (≈ 1200 µM) | 30 (≈ 120 µM) | 300 (≈ 1200 µM) | > 1000 | > 3000 | 300 (≈ 1200 µM) | 40 | 50 | white crystalline powder; insoluble in benzene, hexane; soluble in hot water, methanol | 300 (≈ 1200 µM) |  |  |  |  |  | 
CCNS(=O)(=O)c1cc(C(=O)O)ccc1Cl [Compound 2, 4-chloro-3-ethylamino-sulfonylbenzoic acid] | 300 (≈ 1140 µM) | 300 (≈ 1140 µM) | 300 (≈ 1140 µM) | 30 (≈ 114 µM) | 300 (≈ 1140 µM) | > 1000 | > 3000 | 300 (≈ 1140 µM) | 40 | 50 | white crystalline powder; insoluble in benzene, hexane; soluble in hot water, methanol | 300 (≈ 1140 µM) |  |  |  |  |  | 
CN(C)S(=O)(=O)c1cc(C(=O)O)ccc1Cl [Compound 3, 4-chloro-3-dimethyl-aminosulfonylbenzoic acid] | 300 (≈ 1140 µM) | 300 (≈ 1140 µM) | 300 (≈ 1140 µM) | 30 (≈ 114 µM) | 300 (≈ 1140 µM) | > 1000 | > 3000 | 300 (≈ 1140 µM) | 40 | 50 | white crystalline powder; insoluble in benzene, hexane; soluble in hot water, methanol | 300 (≈ 1140 µM) |  |  |  |  |  | 
CC(C)NS(=O)(=O)c1cc(C(=O)O)ccc1Cl [Compound 4, 4-chloro-3-isopropyl-aminoslfonylbenzoic acid] | 300 (≈ 1080 µM) | 300 (≈ 1080 µM) | 100 (≈ 360 µM) | 30 (≈ 108 µM) | 300 (≈ 1080 µM) | > 1000 | > 3000 | 300 (≈ 1080 µM) | 40 | 40 | white crystalline powder; insoluble in benzene, hexane; soluble in hot water, methanol | 300 (≈ 1080 µM) |  |  |  |  |  | 
O=C(O)c1ccc(Cl)c(S(=O)(=O)Nc2ccccc2)c1 [Compound 5, 3-anilinosulfonyl-4-chlorobenzoic acid] | 300 (≈ 962 µM) | 100 (≈ 321 µM) | 300 (≈ 962 µM) | 30 (≈ 96.2 µM) | 300 (≈ 962 µM) | 968 | > 3000 | 300 (≈ 962 µM) | 40 | 40 | white crystalline powder; insoluble in benzene, hexane; soluble in hot water, methanol | 300 (≈ 962 µM) |  |  |  |  |  | 
O=C(O)c1ccc(Cl)c(S(=O)(=O)N2CCOCC2)c1 [Compound 6, 4-chloro-3-morpholino-sulfonylbenzoic acid] | 300 (≈ 981 µM) | 300 (≈ 981 µM) | 300 (≈ 981 µM) | 30 (≈ 98.1 µM) | 100 (≈ 327 µM) | > 1000 | > 3000 | 300 (≈ 981 µM) | 50 | 50 | white crystalline powder; insoluble in benzene, hexane; soluble in hot water, methanol | 300 (≈ 981 µM) |  |  |  |  |  | 
NS(=O)(=O)c1cc(C(=O)O)c(Cl)cc1Cl [Compound 7, 5-aminosulfonyl-2,4-dichlorobenzoic acid] | 100 (≈ 370 µM) | 100 (≈ 370 µM) | 300 (≈ 1110 µM) | 10 (≈ 37 µM) | 100 (≈ 370 µM) | > 1000 | > 3000 | 100 (≈ 370 µM) |  |  | white crystalline powder; insoluble in benzene, hexane; soluble in hot water, methanol | 100 (≈ 370 µM) | 40 | 50 | 40 | 60 | extremely excellent activity | 
COC(=O)c1ccc(F)c(S(N)(=O)=O)c1 [Compound 8, 3-aminosulfonyl-4-fluoromethylbenzoate] |  |  |  |  |  | > 1000 | > 3000 |  |  |  |  |  |  |  |  |  |  | 
CC(C)OC(=O)c1ccc(Br)c(S(N)(=O)=O)c1 [Compound 9, 3-aminosulfonyl-4-bromo-isopropylbenzoate] |  |  |  |  |  | > 1000 | > 3000 |  |  |  |  |  |  |  |  |  |  | 
CCCCOC(=O)c1ccc(Br)c(S(N)(=O)=O)c1 [Compound 10, 3-aminosulfonyl-4-bromo-n-butylbenzoate] |  |  |  |  |  | > 1000 | > 3000 |  |  |  |  |  |  |  |  |  |  | extremely excellent activity
C=CCOC(=O)c1cc(S(N)(=O)=O)c(Cl)cc1Cl [Compound 11, 5-aminosulfonyl-2,4-dichloro-allylbenzoate] |  |  |  |  |  | > 1000 | > 3000 |  |  |  |  |  |  |  |  |  |  | 
